# “And” between values parts separate entries of the source, which are not always exact repeats. Identical values can stand only once.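 48-hour exposure; five concentrations; linearly interpolated endpoints. GI50 marks 50% less growth. TGI is the concentration that stops growth completely.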
# How the values were obtained:
# Experiment in all cases: NCI anticancer screen, dose series, 48 h
# [1] = system: LOX IMVI melanoma
# [2] = system: M14 melanoma
# [3] = system: MOLT-4 leukemia
# [4] = system: OVCAR-8 ovarian
# [5] = system: SF-539 CNS
# [6] = system: SK-MEL-28 melanoma
# [7] = system: U251 CNS
# [8] = system: DU-145 prostate
# [9] = system: HS 578T breast
# [10] = system: MDA-MB-435
SMILES,TGI [1] [µM],TGI [2] [µM],TGI [3],TGI [4] [µM],TGI [5] [µM],TGI [6] [µM],TGI [7],GI50 [1],GI50 [2] [µM],GI50 [3],GI50 [4] [µM],GI50 [5] [µM],GI50 [6] [µM],GI50 [7],GI50 [8] [µM],TGI [8] [µM],GI50 [9] [µM],TGI [9] [µM],GI50 [10] [µM],TGI [10] [µM]
CCN(CC)c1ccc(N=C2C=C(Cl)C(=O)c3ncccc32)c(C)c1,26.9,8.31,13.8 µM,> 100,28,91,18 µM,,,,,,,,,,,,,
CC1[C@@H]2CC=C3[C@H]4CCC5Cc6nc7c(nc6C[C@@]5(C)C4(O)CC(=O)[C@]32CO[C@]12OC(C)(C)CC2O)CC1CC[C@@H]2C3=C[C@H]4O[C@@]5(O[C@@](C)(CO)C[C@@H]5O)C(C)[C@@]4(O)[C@]3(C)[C@@H](O)CC2[C@]1(C)C7 (stereo not given in full),,0.000363,0.000159 µM and 0.00114 µM,,,0.00201,0.0745 µM and 0.0955 µM,0.00015 µM and 0.00114 µM,0.000135,0.00012 µM and 0.00036 µM,0.198,0.00036,0.000236,0.000112 µM and 0.00036 µM,,,,,,
CC(C)C(=O)[O-].CC(C)C(=O)[O-].N.N.N.N.[Co+3].[O-][Cl+3]([O-])([O-])[O-],> 100,> 100,> 100 µM,> 100,> 100,> 100,> 100 µM,> 100 µM,> 100,> 100 µM,> 100,> 100,> 100,> 100 µM,,,,,,
Nc1nccc2c1ncn2C1OC(CO)C(O)C1O (stereo not given),> 100,> 100,> 100 µM,> 100,> 100,> 100,> 100 µM,94.1 µM,> 100,> 100 µM,91.5,> 100,> 100,> 100 µM,> 100,> 100,> 100,> 100,,
CC(=O)[O-].[Zn].c1ccc(/C(=N\Nc2ccccn2)c2ccccn2)cc1,1.59,1.43,0.227 µM,2.4,9.53,,1.88 µM,0.32 µM,0.0468,,0.0708,1.43,,0.482 µM,,,,,,
CCOC(=O)c1ccc(N2C(=O)Cc3ccccc3C2=O)cc1,,,> 100 µM,> 100,> 100,> 100,> 100 µM,,,,,,,,,,,,,
CCOC(=O)C1=C(Nc2ccc(Br)cc2)OC/C1=N\NC(=O)c1ccccc1O,20.3,> 100,35.2 µM,> 100,> 77.6,> 100,> 100 µM,,,,,,,,,,,,,
CC(C)CC12CC3CCC(CNC1=O)C32C (stereo not given),> 100,> 100,> 100 µM,> 100,> 100,> 100,> 100 µM,,,,,,,,,,,,,
CCn1c(=O)c2ccccc2n2c(=O)c3cc4ccccc4cc3nc12,> 100,> 100,> 100 µM,> 100,> 100,,> 100 µM,,,,,,,,,,,,,
O=C1c2ccccc2-c2c1c1ccc([N+](=O)[O-])cc1c(=O)n2CCCNCCO,0.348,1.4,1.4 µM,3.64,,2.62,1.43 µM,0.0665 µM,0.0904,0.0374 µM,0.225,,1.27,0.0778 µM,,,1.11,4.39,0.95,2.67
CCCCCCCCCCCCCCCCCCOc1ccccc1CC(=O)NCC[N+](C)(C)C,,> 100,,41.9,37,45.4,,,3.14,,5.79,5.48,10.4,,4.97,39.2,4.26,> 100,10.6,55.1
S=c1sc2cscc2s1,> 100,39.9,> 100 µM,45.9,65.5,41.1,> 100 µM,,,,,,,,,,,,,
CS/C(c1ccccc1)=[N+](\[O-])Cc1ccccc1,31.6,> 100,> 100 µM,> 100,> 100,> 100,> 100 µM,,,,,,,,,,,,,
CC(=O)/C=C1\CC(=O)Nc2ccccc2N1,> 100,> 100,> 100 µM,> 100,> 100,> 100,> 100 µM,,,,,,,,,,,,,
O=C(NC1C2CC3CC(C2)CC1C3)/C(Cl)=C1/Sc2ccccc2NC1=O (stereo not given),> 100,> 100,> 100 µM,> 100,> 100,> 100,> 100 µM,,,,,,,,,,,,,
N#Cc1nc2c(S(=O)(=O)c3ccccc3)c(N)n(Cc3ccc(Cl)cc3)c2nc1C#N,4.17,> 50,,47.6,> 50,> 50,18.3 µM,0.932 µM,20.9,,8.51,19.4,15.3,8.09 µM,15,> 50,7.08,23.4,19.4,> 50
Cc1cc(N(CCCNc2ccnc3cc(Cl)ccc23)Cc2ccc3c(c2)OCO3)nc(N2CCCCC2)n1,3.29,3.47,,4.95,3.36,3.66,4.65 µM,1.69 µM,1.77,,2.1,1.82,1.94,2.06 µM,,,1.78,4.25,1.72,3.27
OCC(O)C(O)C(O)c1nn(-c2ccccc2)c2nc3cc(Cl)c(Cl)cc3nc12 (stereo not given),> 100,41.1,87.6 µM,> 100,38.5,> 100,> 100 µM,,,,,,,,,,,,,
Cc1ccc(C2=C(c3ccc(C)cc3)C(c3ccc(C)cc3)=C(c3ccc(C)cc3)C2=O)cc1,,> 100,> 100 µM,> 100,> 100,> 100,> 100 µM,,,,,,,,,,,,,
N#C/C(=C\c1c(-c2ccccc2)[nH]c2ccccc12)C(=O)c1ccccc1,> 100,> 100,,> 100,43.9,> 100,27.4 µM,7.4 µM,4.78,,21.7,6.03,12,4.73 µM,5.22,> 100,6.26,40.5,0.37,4.14
Cc1ccccc1C(=O)Oc1ccc(OCc2ccccc2)cc1,> 100,> 100,> 100 µM,> 100,> 100,> 100,> 100 µM,,,,,,,,,,,,,

SMILES,TGI [1] [µM],TGI [2] [µM],TGI [3],TGI [4] [µM],TGI [5] [µM],TGI [6] [µM],TGI [7],GI50 [1],GI50 [2] [µM],GI50 [3],GI50 [4] [µM],GI50 [5] [µM],GI50 [6] [µM],GI50 [7],GI50 [8] [µM],TGI [8] [µM],GI50 [9] [µM],TGI [9] [µM],GI50 [10] [µM],TGI [10] [µM]
CC1(C(=O)O)CCOc2ccccc21 (stereo not given),> 100,> 100,> 100 µM,> 100,> 100,> 100,,,,,,,,,,,,,,
COc1ccc(-c2ccc(-c3ccc(C(=N)N)cn3)o2)cc1Cl,,3.19,,,3.14,3.22,3.53 µM,,1.67,,,1.68,1.69,1.79 µM,3.45,11.3,2.08,6.18,1.74,3.33
O=C1C(=O)N(c2nccs2)C(=O)C(=O)C1c1nc2ccccc2s1,> 100,> 100,,> 100,> 100,> 100,> 100 µM,,,,,,,,,,,,,
O=C(Nc1ccc(Br)cc1)C(=O)C(C(=O)c1ccccc1F)C1OC(=O)c2ccccc21 (stereo not given),44.9,43.9,92.8 µM,70.3,66.9,50.2,51.8 µM,,,,,,,,,,,,,
NCc1c(C(N)=O)ncn1Cc1ccccc1,> 100,> 100,> 100 µM,> 100,> 100,> 100,> 100 µM,,,,,,,,,,,,,
COc1ccc2c(CCNC(=O)/C=C/c3ccccc3)c(C(C)=O)[nH]c2c1[N+](=O)[O-],27.3,> 100,> 100 µM,> 100,61,> 100,> 100 µM,,,,,,,,,,,,,
O=C(N/C(=C\c1ccc(/C=C(\NC(=O)c2ccccc2)c2nc3ccccc3s2)cc1)c1nc2ccccc2s1)c1ccccc1,13.3,11.9,26.7 µM,5.51,4.61,24.2,6.2 µM,,,,,,,,,,,,,
Cc1ccc(Nc2cc(C)nc(NCCCNc3ccnc4cc(Cl)ccc34)n2)cc1,2.83,3.33,6.67 µM,3.25,3.05,3.06,2.67 µM,1.38 µM,1.56,2.01 µM,1.67,1.59,1.62,1.32 µM,1.97,4.14,,,1.41,2.7
CC(NC(=O)C(=O)N/N=C1\C[C@@H](c2ccccc2)Nc2ccccc21)c1ccccc1 (stereo not given in full),> 100,> 100,,> 100,> 100,> 100,> 100 µM,,,,,,,,,,,,,
N#Cc1ccc(Oc2cccc(Oc3ccccc3)c2)cc1C#N,,> 100,> 100 µM,> 100,> 100,> 100,> 100 µM,,> 100,,> 100,,,,,,,,,
C=C1CCCC2[C@](C)(CC3=C(O)C(=O)C=C(OC)C3=O)[C@@H](C)CC[C@]12C (stereo not given in full),> 100,5.03,,> 100,16,> 100,> 100 µM,,,,,,,,,,,,,
CCc1ccc2nccc(NCCCN(C)C)c2c1[N+](=O)[O-],> 100,67.4,> 100 µM,> 100,,> 100,> 100 µM,,,,,,,,,> 100,,> 100,,> 100
CCOC(=O)C(C(=O)OCC)C(=O)c1ccccc1C(=O)c1ccccc1,> 100,> 100,83.6 µM,,> 100,,> 100 µM,,,,,,,,,> 100,,> 100,,> 100
O=C(Nc1nc2ccc([N+](=O)[O-])cc2s1)C(=O)C(C(=O)c1ccncc1)C1OC(=O)c2ccccc21 (stereo not given),,> 100,> 100 µM,> 100,,,> 100 µM,,,,,,,,,,,,,
CN(CC(=O)O)Cc1oc(CO)cc(=O)c1O,> 100,> 100,> 100 µM,> 100,> 100,> 100,> 100 µM,,,,,,,,,,,> 100,,> 100
Fc1ccc2c(c1)C1=C(CO2)C(c2ccc(Cl)cc2)NC(=S)N1 (stereo not given),61.7,57.5,> 100 µM,> 100,44.1,,63.1 µM,23 µM,24,39.5 µM,42.6,23,,18.7 µM,28,> 100,,,21.6,51.1
CC(=O)OC1CCC2C(=CCC3C2(C)C(=O)CC2(C)C(C4(C)OC(C(C)C)=CC4=O)C(O)CC32C)C1(C)C (stereo not given),,50.9,> 100 µM,> 100,33.2,,> 100 µM,,,,,,,,,,,,,
CS(=O)(=O)N(CCC#N)c1ccc(C=O)cc1,> 100,> 100,> 100 µM,> 100,> 100,> 100,> 100 µM,,,,,,,,,,,,,
Cn1c(=O)c(C(=O)NC(=O)NCCCCCOC(=O)CCCCCCCCCCC(=O)OCCCCCNC(=O)NC(=O)c2cn(Cc3ccccc3)c(=O)n(C)c2=O)cn(Cc2ccccc2)c1=O,> 100,> 100,,> 100,> 100,> 100,> 100 µM,,,,,,,,,,,,,
CCOC(=O)N1C(c2ccccc2)C=CC(c2ccccc2)N1C(=O)OCC (stereo not given),> 100,,,> 100,> 100,> 100,> 100 µM,,,,,,,,,,,,,
COc1c(Cl)ccc2c(-c3nc4cc(Cl)c(F)cc4s3)cc(=O)oc12,,> 100,> 100 µM,> 100,3.36,> 78,44.7 µM,,26.7,4.1 µM,11.2,1.77,26.5,7.57 µM,13.9,39.9,26.8,> 100,25,> 66.1

# From PubChem BioAssay (NCI)
